Square brackets hold non-standard residues; d marks the D form. * marks the point of attachment. 2Nal = N[C@@H](Cc1ccc2ccccc2c1)C(=O)O; Propionyl = CCC(=O)*; Sar = CNCC(=O)O
Assays:
Mouse = assay: Maximum platelet elevation relative to baseline in normal healthy mice, single escalating doses; format: in vivo; set-up: key to pharmacodynamics (PD) effect class of the dose (beneficial effects on survival): **: large pharmacodynamics (PD) effect; *: modest effect; settings: for Mouse Max Platelet Ratio: 3DP03-Piedmont-01
From the text: The ratio of the maximum platelet counts to the baseline platelet counts following single escalating doses of RWJ-800088 to mice, rats, dogs, rhesus monkeys and human healthy volunteers is shown in Table 5. The dose required to achieve a 2-3.5-fold elevation in humans is ˜100-fold lower compared to mice, ˜1,000-fold lower compared to rats and >10,000-fold lower compared to canines and NHPs. […] The species differences in potency has been described for other TPO mimetics in the literature and is attributed to differences in receptor affinity (Erickson-Miller C L, et al. Discovery and characterization of a selective, nonpeptidyl thrombopoietin receptor agonist. Exp. Hematol. 2005; 33:85-93). […] It is discovered that the dose of RWJ-800088 that produces a survival benefit and protects against vascular and organ injury is the dose that produces a 2-4 fold elevation of platelets (Table 6).

[1] = test system: C57BL/6 mice exposed to TBI; assay: 30-day survival after TBI in C57BL/6 mice; format: in vivo, mouse
From the text: Total Body Irradiation (TBI). Mice were irradiated bilaterally in the Cobalt-60 gamma-irradiation facility at the AFRRI. These animals were placed in well-ventilated plexiglass chambers made specifically for irradiating mice. An alanine/Electron Spin Resonance (ESR) dosimetry system (American Society for Testing and Material Standard E 1607) was used to measure the dose rates in the cores of acrylic phantoms (3 inches long and 1 inch in diameter) located in all empty slots of the exposure rack in the plexiglass chamber. ESR signals were measured with a calibration curve based on standard calibration dosimeters provided by the National Institute of Standard and Technology (NIST, Gaithersburg, Md.). The calibration curve was verified by inter-comparison with the National Physical Laboratory (NPL) in the United Kingdom. The corrections applied to the measured dose rates in phantoms were for decay of the Co-60 source and for a small difference in mass-energy absorption coefficients for water and soft tissue at the Co-60 energy level. Kaplan-Meier survival curves were plotted using GraphPad software; and trend in survival is compared between vehicle and drug-treated group.
The survival efficacy of RWJ-800088 was tested in C57BL/6 (another strain of mice with different radiation sensitivity compared to CD2F1) in males and females. […] All animals in saline treated groups (males and females) died whereas there was no mortality in RWJ-800088 treated groups 30 days post-TBI. […] All animals in saline treated groups died whereas there was 92% survival observed in the RWJ-800088 (24 h pre-TBI) treated group 30 days post-TBI.
To confirm the survival benefit provided by RWJ-800088 administration following TBI in another mouse strain with difference in radiation sensitivity, C57BL/6 male mice were irradiated at 8.0 Gy (˜LD70/30) followed by administration of a single subcutaneous dose of RWJ-800088 (1 mg/kg) at 24 h after TBI. The percentage of mice surviving on day 30 post-TBI for the RWJ-800088 treated group was 83% and for the saline treated group it was only 13% (2).

mice surviving TBI = assay: Long-term blood cells, bone marrow and kidney staining in TBI survivors (Example 5); format: in vivo, mouse
Protocol: Methods: During the above Experiment 4, four studies were performed as follows:
Study A: A subset of the animals were sacrificed at 1, 6, and 12 months. Blood was collected and blood cells counted, and femurs were collected, bone marrow isolated and cultured to analyze for colony forming units;
Study B: A subset of the animals were sacrificed at 1 and 6 months. Sterna were collected from these animals, fixed, sectioned, stained with H&E (Hematoxylin and eosin), and megakaryocytes counted;
Study C: A subset of the animals were sacrificed at 1 and 6 months. Kidneys were collected from these animals, fixed, sectioned, stained with β-Catenin or E-cadherin: and
Study D: A subset of the animals were sacrificed at 1 and 6 months. Kidneys were collected from these animals, fixed, sectioned, stained with β-galactosidase, a marker of senescence.

[2] = C57BL/6 Both genders, 7.76 Gy, 0.3 mg/kg single dose, Post 6 hr
[3] = C57BL/6 Both genders, 7.76 Gy, 0.3 mg/kg single dose, Post 24 hr
[4] = C57BL/6 Both genders, 7.96 Gy, 0.3 mg/kg single dose, Post 6 hr
[5] = C57BL/6 Both genders, 7.96 Gy, 0.3 mg/kg single dose, Post 24 hr
[6] = C57BL/6 F, 8.75 Gy, 3 mg/kg single dose, Pre −24 hr
[7] = C57BL/6 M, 8.75 Gy, 3 mg/kg single dose, Pre −24 hr
[8] = 1 and 6 months post TBI (FIG. 25)

methoxypolyethyleneglycol20000-propionyl-L-Isoleucyl-L-Glutamyl-Glycyl-L-Prolyl-L-Threonyl-L-Leucyl-L-Arginyl-L-Glutaminyl-L-2-Naphthylalanyl-L-Leucyl-L-Alanyl-L-Alanyl-L-Arginyl-Sarcosyl-Ne-(methoxypolyethyleneglycol20000-propionyl-L-Isoleucyl-L-Glutamyl-Glycyl-L-Prolyl-L-Threonyl-L-Leucyl-L-Arginyl-L-Glutaminyl-L-2-Naphthylalanyl-L-Leucyl-L-Alanyl-L-Alanyl-L-Arginyl-Sarcosyl-)-Lysinamide ({mPEG 20 kDa-Propionyl}-IEGPTLRQ[2Nal]LAAR[Sar]K-NH2; also: dimer: second identical mPEG-propionyl chain on Lys Nε of C-terminal lysinamide) [RWJ-800088]
Mouse Max Platelet Ratio (Mouse; dose 10 μg/kg): 0.9 ± 0.6 | Mouse Max Platelet Ratio (Mouse; dose 30 μg/kg): 1.8 ± 0.4 | Mouse Max Platelet Ratio (Mouse; dose 100 μg/kg): 2.5 ± 1.1 | Mouse Max Platelet Ratio (Mouse; dose 300 μg/kg): 3.9 ± 0.9 | Mouse Max Platelet Ratio (Mouse; dose 1000 μg/kg): 4.3 ± 0.5 | Mouse Max Platelet Ratio (Mouse; dose 3000 μg/kg): 3.4 ± 1 | Dose for 2.0-4x Platelet Elevation in Healthy Subjects (Mouse; Mice): ≥0.1 mg/kg | pharmacodynamics (PD) effect class of the dose (beneficial effects on survival) (Mouse; Mouse, dose 100 μg/kg): ** | Average of the Maximum Platelet Elevation/Baseline Platelet Counts (Mouse; Mouse, dose 300 μg/kg): 3.9 | pharmacodynamics (PD) effect class of the dose (beneficial effects on survival) (Mouse; Mouse, dose 300 μg/kg): ** | pharmacodynamics (PD) effect class of the dose (beneficial effects on survival) (Mouse; Mouse, dose 1000 μg/kg): ** | pharmacodynamics (PD) effect class of the dose (beneficial effects on survival) (Mouse; Mouse, dose 3000 μg/kg): ** | Platelet Elevation in Non-Irradiated Animals (fold increase over baseline) (Mouse; TPOm dose 0.1 mg/kg): 2.50 fold increase over baseline | Platelet Elevation in Non-Irradiated Animals (fold increase over baseline) (Mouse; TPOm dose 0.3 mg/kg): 3.90 fold increase over baseline | Platelet Elevation in Non-Irradiated Animals (fold increase over baseline) (Mouse; TPOm dose 1 mg/kg): 4.30 fold increase over baseline | Platelet Elevation in Non-Irradiated Animals (fold increase over baseline) (Mouse; TPOm dose 2 mg/kg, imputed as mean of the 1 mg/kg and 3 mg/kg cohorts): 3.85 fold increase over baseline | Platelet Elevation in Non-Irradiated Animals (fold increase over baseline) (Mouse; TPOm dose 3 mg/kg): 3.40 fold increase over baseline | Survival Differential (Treatment-Vehicle) [1, 2]: 25% | Survival treatment [1, 2]: 100% | Survival Differential (Treatment-Vehicle) [1, 3]: 15% | Survival treatment [1, 3]: 90% | Survival Differential (Treatment-Vehicle) [1, 4]: 45% | Survival treatment [1, 4]: 100% | Survival Differential (Treatment-Vehicle) [1, 5]: 20% | Survival treatment [1, 5]: 75% | Survival Differential (Treatment-Vehicle) [1, 6]: 100% | Survival treatment [1, 6]: 100% | Survival Differential (Treatment-Vehicle) [1, 7]: 100% | Survival treatment [1, 7]: 100% | mortality 30 days post-TBI ([1]; C57BL/6 male and female, 8.75 Gy (LD100/30), 3 mg/kg 24 h prior to irradiation): no mortality | percentage of mice surviving on day 30 post-TBI ([1]; C57BL/6 male, 8.0 Gy (~LD70/30), single SC dose 1 mg/kg at 24 h after TBI): 83% | E-cadherin expression in kidney vs vehicle (mice surviving TBI; [8]): higher | β-Catenin expression in kidney (mice surviving TBI; [8]): decreases β-Catenin expression | β-galactosidase staining in kidney (marker of senescence) (mice surviving TBI; 1 and 6 months post TBI (FIG. 26, 27)): protects from cellular senescence | megakaryocytes in sterna vs vehicle (saline) (mice surviving TBI; 1 and 6 months post irradiation): significantly higher numbers of megakaryocytes | blood cell types (white blood cells, lymphocytes, neutrophils, platelets, red blood cells) vs vehicle (mice surviving TBI; 6 months and 12 months post TBI): increased in number | colony forming units in isolated bone marrow vs vehicle (mice surviving TBI; 6 months post TBI (FIG. 23)): more colony forming units
